Our source for the IC50, EC50 and CC50 values is ChEMBL document CHEMBL1201862, “PubChem BioAssay data set” (2004).

The target of assay [1] is Nuclear receptor subfamily 5 group A member 2 (Homo sapiens, UniProt O00482). Format: functional, cell-based.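 Also: HEK293T cells transfected with LRH-1 and a StAR promoter luciferase reporter; potency for inhibitors that lower LRH-1 driven reporter light.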
Assay [2] can be described thus: nonselective StAR promoter luciferase inhibitors – cell-based, luminescence, luciferase reporter, counter-screen for LRH-1 inverse agonist project, dose response (AID 651969). It is filed as functional.
A further assay addresses Steroidogenic factor 1 (Homo sapiens, UniProt Q13285). As to the kind of experiment: Counterscreen for inverse agonists of the liver receptor homolog-1 (LRH-1; NR5A2): Luminescence-based cell-based high throughput dose response assay to identify inverse agonists of the Steroidogenic Factor 1 Nuclear Receptor (SF1; NR5A1). It is filed as functional.
Assay [3] in a line: blockers of CRF-binding protein–CRF-R2 complex – cell-based, uHTS hits, 384-well, dose response (AID 651639). Format: functional, Homo sapiens. The note with it: read-out: IC50_Mean.
In assay [4] the target is T1, Corticotropin-releasing factor receptor 2/Corticotropin-releasing factor-binding protein (Homo sapiens, UniProt P24387+Q13324).
T1 sequence (Q13324 whole entry): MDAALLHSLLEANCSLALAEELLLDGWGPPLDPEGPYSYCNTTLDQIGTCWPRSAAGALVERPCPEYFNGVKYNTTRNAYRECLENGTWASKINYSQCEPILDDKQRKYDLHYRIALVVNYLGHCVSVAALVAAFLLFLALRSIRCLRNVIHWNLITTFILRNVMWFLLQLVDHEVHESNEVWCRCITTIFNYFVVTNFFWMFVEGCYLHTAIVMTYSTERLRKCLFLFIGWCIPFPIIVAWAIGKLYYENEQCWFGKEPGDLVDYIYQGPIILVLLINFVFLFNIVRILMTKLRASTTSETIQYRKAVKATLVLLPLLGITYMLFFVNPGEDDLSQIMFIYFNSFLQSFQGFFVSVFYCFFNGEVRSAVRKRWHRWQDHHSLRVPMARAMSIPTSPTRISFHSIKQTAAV
T1 sequence (P24387 whole entry): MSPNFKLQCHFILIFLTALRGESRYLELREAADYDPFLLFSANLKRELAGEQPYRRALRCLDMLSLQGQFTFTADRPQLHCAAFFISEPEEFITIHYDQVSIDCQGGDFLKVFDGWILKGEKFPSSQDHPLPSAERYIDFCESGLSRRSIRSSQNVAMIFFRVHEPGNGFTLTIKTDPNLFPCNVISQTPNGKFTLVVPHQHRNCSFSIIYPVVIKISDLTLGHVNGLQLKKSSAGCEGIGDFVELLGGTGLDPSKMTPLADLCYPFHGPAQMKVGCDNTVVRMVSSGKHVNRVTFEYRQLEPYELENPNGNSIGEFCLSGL
As to the kind of experiment: activators of CRF receptor 2 with binding protein – uHTS hits, confirmation (AID 602473). The note with it: read-out: EC50_Mean. It is filed as functional.

Assay [5] concerns the target T1, Corticotropin-releasing factor receptor 2/Corticotropin-releasing factor-binding protein. Nature of the assay: Dose Response confirmation of uHTS hits for small molecule antagonists of the CRF-binding protein and CRF-R2 receptor complex. Format: functional. The note with it: read-out: IC50_Mean.
Assay [6] addresses T2, Small ubiquitin-related modifier 1 (Homo sapiens, UniProt P63165). As to the kind of experiment: SUMO1 protein interaction blockers, potency – biochemical, fluorescence polarization, uHTS hits, dose response (AID 624382). It is filed as functional. The note with it: read-out: IC50_Mean.
Assay [7] has as its target T2, Small ubiquitin-related modifier 1. Nature of the assay: SUMO1 protein-protein binding blockers, potency – biochemical, FRET, dose response (AID 624383). The note with it: read-out: IC50_Mean. Format: functional.
For assay [8], the target named is T3, Rac GTPase-activating protein 1 (Homo sapiens, UniProt Q9H0H5).
T3 sequence (Q9H0H5 whole entry): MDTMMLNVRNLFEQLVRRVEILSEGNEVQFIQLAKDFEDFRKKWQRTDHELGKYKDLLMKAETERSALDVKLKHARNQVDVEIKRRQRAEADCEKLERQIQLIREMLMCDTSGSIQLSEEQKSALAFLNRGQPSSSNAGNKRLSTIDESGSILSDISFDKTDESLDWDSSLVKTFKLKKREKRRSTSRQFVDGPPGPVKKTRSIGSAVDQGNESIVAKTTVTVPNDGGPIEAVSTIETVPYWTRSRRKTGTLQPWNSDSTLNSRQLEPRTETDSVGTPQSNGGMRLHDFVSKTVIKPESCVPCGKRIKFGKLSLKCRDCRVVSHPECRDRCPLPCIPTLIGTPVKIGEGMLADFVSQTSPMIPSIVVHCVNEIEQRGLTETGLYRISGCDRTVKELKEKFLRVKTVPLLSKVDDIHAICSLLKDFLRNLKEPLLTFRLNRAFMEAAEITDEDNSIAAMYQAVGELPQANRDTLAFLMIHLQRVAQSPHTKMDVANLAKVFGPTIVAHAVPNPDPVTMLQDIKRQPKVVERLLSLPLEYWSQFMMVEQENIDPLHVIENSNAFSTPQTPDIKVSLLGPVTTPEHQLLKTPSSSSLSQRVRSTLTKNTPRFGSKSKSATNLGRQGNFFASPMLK
As to the kind of experiment: blockers of MgcRacGAP-driven Rac1 GTP hydrolysis – biochemical, ADP Hunter fluorescence, primary and confirmatory, confirmation (AID 624330). It is filed as functional.

Assay [9] in a line: viability loss in HeLa cells – cytotoxicity control for MgcRacGAP inhibitor project, dose response (AID 624300). It is filed as functional.
Assay [10] addresses T4, Sentrin-specific protease 1 (Homo sapiens, UniProt Q9P0U3).
T4 sequence (Q9P0U3 whole entry): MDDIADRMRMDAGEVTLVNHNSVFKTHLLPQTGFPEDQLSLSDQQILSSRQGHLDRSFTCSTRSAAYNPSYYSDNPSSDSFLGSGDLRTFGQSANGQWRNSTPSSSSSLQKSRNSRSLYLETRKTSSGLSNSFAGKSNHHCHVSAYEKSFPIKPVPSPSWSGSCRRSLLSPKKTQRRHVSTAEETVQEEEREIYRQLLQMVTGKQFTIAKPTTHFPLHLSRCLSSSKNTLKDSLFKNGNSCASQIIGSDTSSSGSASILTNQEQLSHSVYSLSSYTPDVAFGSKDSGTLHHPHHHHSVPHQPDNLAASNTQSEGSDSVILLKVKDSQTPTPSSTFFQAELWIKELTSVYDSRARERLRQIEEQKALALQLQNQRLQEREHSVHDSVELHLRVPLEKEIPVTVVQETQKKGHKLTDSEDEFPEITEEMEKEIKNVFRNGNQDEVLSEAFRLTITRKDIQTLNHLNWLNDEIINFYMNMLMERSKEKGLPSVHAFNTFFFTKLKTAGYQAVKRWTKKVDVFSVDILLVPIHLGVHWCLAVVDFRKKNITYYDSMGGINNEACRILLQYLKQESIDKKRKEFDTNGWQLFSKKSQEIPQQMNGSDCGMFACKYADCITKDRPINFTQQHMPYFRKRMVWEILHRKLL
As to the kind of experiment: Dose response confirmation of small molecule inhibitors of the catalytic domain of the SUMO protease, SENP1 in a FRET assay. Format: functional. The note with it: read-out: IC50_Mean.

Assay [11] has as its target T4, Sentrin-specific protease 1. As to the kind of experiment: SENP1 catalytic domain blockers, concentration series – biochemical, kinetic FRET, dose response (AID 651697). It is filed as functional. The note with it: read-out: IC50_Mean.
The next assay has as its target T5, Leucine aminopeptidase (Plasmodium falciparum 3D7, UniProt Q8IL11).
T5 sequence (Q8IL11 whole entry): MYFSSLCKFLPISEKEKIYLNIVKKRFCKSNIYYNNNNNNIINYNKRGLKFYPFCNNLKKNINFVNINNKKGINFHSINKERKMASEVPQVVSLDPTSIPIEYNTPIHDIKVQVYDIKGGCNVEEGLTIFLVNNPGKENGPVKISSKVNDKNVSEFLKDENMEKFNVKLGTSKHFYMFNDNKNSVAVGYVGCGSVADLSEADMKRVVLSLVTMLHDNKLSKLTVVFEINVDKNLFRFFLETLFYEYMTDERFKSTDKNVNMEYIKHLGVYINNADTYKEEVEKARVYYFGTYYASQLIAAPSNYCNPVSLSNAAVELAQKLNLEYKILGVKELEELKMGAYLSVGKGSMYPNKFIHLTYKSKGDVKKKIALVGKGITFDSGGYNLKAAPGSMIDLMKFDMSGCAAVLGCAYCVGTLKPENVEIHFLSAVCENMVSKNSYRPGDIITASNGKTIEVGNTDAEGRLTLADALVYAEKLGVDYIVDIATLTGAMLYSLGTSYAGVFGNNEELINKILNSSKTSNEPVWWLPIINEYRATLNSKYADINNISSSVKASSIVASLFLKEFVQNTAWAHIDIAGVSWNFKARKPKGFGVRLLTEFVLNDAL
Nature of the assay: P. falciparum M17LAP inhibitors, primary screen, biochemical, fluorogenic H-Leu-NHMec substrate, 1536-well (AID 1619). Format: functional.

Assay [12] concerns the target Photoreceptor-specific nuclear receptor (Homo sapiens, UniProt Q9Y5X4). Format: functional, cell-based.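 Also: CHO-S cells with Gal4-NCOR and VP16-NR2E3 two-hybrid luciferase reporter.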
The next assay has as its system Vero. As to the kind of experiment: viability of Vero cells under compound – cytotoxicity control for flavivirus capping enzyme inhibitors (AID 588742). The note with it: Chlorocebus sabaeus. Format: functional.
The target in a further assay is Genome polyprotein (dengue virus type 2, UniProt P29990). Nature of the assay: flavivirus cap methylation enzyme inhibition – biochemical, confirmation dose response, primary screen (AID 588689). It is filed as functional.
Assay [13] deals with HEK293. As to the kind of experiment: cells. Format: functional, cell-based. The note with it: Homo sapiens.
In assay [14] the test system is HEK293. As to the kind of experiment: NOD2 signaling inhibitors in MDP-stimulated cells, cell-based, uHTS, luminescence (AID 2001). Format: functional. The note with it: Homo sapiens.
Assay [15] deals with HEK293. Nature of the assay: cells. Format: functional, cell-based. The note with it: Homo sapiens. This is another data set of the same source.
Assay [16] relates to HEK293. As to the kind of experiment: inhibition of NOD1-driven NF-kB reporter – cell-based, luminescence, uHTS, primary screen (AID 1578). It is filed as functional. The note with it: Homo sapiens.

Calls of active or inactive are those of the source. Some results are limits rather than exact numbers.

Steroidogenic factor 1, sequence (Q13285 whole entry): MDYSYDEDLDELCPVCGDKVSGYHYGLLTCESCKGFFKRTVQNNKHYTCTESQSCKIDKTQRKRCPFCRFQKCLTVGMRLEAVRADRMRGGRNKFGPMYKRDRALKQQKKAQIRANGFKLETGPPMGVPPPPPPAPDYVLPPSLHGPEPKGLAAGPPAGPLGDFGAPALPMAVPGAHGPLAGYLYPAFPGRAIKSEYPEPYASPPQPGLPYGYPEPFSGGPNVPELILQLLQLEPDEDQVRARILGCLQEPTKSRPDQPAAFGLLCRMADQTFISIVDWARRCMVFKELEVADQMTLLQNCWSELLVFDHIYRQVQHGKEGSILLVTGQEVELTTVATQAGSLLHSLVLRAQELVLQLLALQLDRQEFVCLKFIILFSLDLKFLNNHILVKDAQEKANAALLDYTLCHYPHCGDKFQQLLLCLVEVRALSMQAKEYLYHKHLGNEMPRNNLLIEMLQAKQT
Nuclear receptor subfamily 5 group A member 2, sequence (O00482 whole entry): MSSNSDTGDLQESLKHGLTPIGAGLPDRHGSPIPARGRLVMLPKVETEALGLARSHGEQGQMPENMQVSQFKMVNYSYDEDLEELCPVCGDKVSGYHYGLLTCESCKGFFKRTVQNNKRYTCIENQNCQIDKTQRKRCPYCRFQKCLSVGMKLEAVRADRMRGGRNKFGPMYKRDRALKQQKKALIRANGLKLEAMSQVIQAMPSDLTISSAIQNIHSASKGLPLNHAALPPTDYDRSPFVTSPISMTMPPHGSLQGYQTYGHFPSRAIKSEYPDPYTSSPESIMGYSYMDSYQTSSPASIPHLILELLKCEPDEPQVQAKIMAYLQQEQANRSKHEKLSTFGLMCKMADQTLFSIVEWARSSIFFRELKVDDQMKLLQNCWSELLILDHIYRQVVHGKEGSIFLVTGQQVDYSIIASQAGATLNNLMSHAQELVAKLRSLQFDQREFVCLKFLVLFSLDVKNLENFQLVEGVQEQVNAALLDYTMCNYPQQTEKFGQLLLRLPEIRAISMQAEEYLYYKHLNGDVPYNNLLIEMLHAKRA
T2 sequence (P63165 whole entry): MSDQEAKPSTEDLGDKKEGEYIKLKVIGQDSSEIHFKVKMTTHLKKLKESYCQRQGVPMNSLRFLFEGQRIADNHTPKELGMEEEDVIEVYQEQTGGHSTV
Photoreceptor-specific nuclear receptor, sequence (Q9Y5X4 whole entry, the tested form may be a part): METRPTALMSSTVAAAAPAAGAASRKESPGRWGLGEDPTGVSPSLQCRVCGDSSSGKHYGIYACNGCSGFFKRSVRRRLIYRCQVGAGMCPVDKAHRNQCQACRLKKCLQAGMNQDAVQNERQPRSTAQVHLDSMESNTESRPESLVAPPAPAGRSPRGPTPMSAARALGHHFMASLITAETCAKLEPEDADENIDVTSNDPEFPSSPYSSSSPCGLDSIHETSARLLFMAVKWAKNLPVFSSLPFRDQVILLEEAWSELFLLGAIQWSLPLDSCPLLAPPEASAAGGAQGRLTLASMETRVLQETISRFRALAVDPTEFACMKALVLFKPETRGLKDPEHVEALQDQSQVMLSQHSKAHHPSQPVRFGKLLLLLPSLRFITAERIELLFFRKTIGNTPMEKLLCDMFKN
Genome polyprotein, sequence (P29990 2492-3391 limits assumed): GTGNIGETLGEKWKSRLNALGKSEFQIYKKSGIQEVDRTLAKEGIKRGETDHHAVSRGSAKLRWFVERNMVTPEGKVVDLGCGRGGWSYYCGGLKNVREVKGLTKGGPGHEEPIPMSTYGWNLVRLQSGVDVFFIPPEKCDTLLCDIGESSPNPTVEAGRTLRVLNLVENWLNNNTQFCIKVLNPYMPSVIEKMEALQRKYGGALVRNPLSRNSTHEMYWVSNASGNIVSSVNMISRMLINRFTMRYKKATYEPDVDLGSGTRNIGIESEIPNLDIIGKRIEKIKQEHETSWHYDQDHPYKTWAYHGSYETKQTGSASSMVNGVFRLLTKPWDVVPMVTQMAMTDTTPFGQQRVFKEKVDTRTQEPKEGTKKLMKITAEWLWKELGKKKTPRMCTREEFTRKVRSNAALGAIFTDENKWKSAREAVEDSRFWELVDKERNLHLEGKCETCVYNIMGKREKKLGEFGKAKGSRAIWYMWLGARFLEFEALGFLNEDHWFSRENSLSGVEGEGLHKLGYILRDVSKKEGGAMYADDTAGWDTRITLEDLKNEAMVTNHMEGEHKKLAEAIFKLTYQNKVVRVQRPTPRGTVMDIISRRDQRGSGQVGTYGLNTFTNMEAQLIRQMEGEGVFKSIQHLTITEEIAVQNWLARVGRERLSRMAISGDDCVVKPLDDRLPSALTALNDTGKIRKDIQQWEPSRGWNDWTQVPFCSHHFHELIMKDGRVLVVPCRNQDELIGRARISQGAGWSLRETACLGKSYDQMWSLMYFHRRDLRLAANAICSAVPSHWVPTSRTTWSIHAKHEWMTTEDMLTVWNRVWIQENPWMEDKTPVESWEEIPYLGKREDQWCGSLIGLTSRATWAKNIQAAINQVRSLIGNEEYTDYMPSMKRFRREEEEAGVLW

Take `COc1cccc(C(=O)COc2cccc(NC(=O)c3cccc([N+](=O)[O-])c3)c2)c1`: the IC50 in assay [1] was 0.443 µM (active); in assay [2] it was 10.9 µM (inactive); on Steroidogenic factor 1 it was 0.443 µM (active).

Consider `Cc1ccccc1Cn1nc(C)c(NC(=O)c2cc(-c3cccs3)on2)c1C`, for which the IC50 in assay [3] was > 20 µM (inactive); in [5], 39.1 µM (active). Also, the EC50 in assay [4] is > 53 µM (inactive).

`COC(=O)c1ccc(NC(=O)CSc2nn3c(=O)c(C)nnc3s2)cc1`: the IC50 (in [1]; in assay [2]; at Steroidogenic factor 1) was 35.9 µM (inactive) each time.

In the case of `Cc1ccc(S(=O)(=O)N2CCOCC2)cc1C(=O)OCC(=O)Nc1ccc2[nH]c(O)nc2c1`, the IC50 is > 66.6 µM (inactive) in [6] and 11.4 µM (active) in assay [7].

Regarding `CCOc1cc(/C=C2\C(=O)N(CCc3ccc(OC)c(OC)c3)C(C)=C2C(=O)OC)ccc1O`, the IC50 in assay [8] was 118 µM (active). Besides, in assay [9], the CC50 is 100 µM (active).

For `COc1cccc(C2(c3cccc(OC)c3)CC2C(=O)Nc2ccccc2Cl)c1` (stereo not drawn), the IC50 is > 20 µM (inactive) in assay [3] and 3.83 µM (active) in assay [5]. Besides, in assay [4], the EC50 was > 53 µM (inactive).

For `COc1cc(/C=C2\SC(=S)N(CC(=O)O)C2=O)ccc1OC(=O)c1ccco1`, the values for the IC50 in assay [10] and in assay [11] were 7.29 µM (active) and 4.52 µM (active), respectively.

On to `COc1ccccc1NN=C1C(=O)NC(=S)NC1=O`, for which the results for the IC50 in [10] and in assay [11] were 18 µM (active) and 23.3 µM (inactive), respectively.

With `O=C(NCC1CCCO1)c1sc(=S)n2c1[nH]c(=O)c1ccc(C(=O)N3CCCCC3)cc12` (stereo not drawn), the IC50 at Leucine aminopeptidase is 65.4 µM (active); in assay [10] it was 21.1 µM (inactive); in assay [11], 51.1 µM (inactive).

For the molecule `Cc1ccc(S(=O)(=O)N2[C@@H](c3ccc(Br)cc3)C(C(=O)O)=CC[C@H]2c2ccc(Cl)c(Cl)c2)cc1`, the IC50 in assay [12] was 5.2 µM (active); in assay [6] it was > 66.6 µM (inactive); at Genome polyprotein, 42.9 µM (active); in assay [7], 6.25 µM (active). Further, the CC50 in the assay with Vero is > 40 µM (active).

As for `CCCc1nnc(SCC(=O)Nc2ccc(OC)cc2)o1`, the IC50 in assay [1] is 6.68 µM (active); in [2], 35.9 µM (inactive); at Steroidogenic factor 1, 15.5 µM (inactive).

As to `C/C(=N\NC(=O)c1cc(Cl)ccc1O)c1ccc(Br)s1`, the IC50 in the assay on HEK293 [13] was 5.47 µM (active); in the assay with HEK293 [14] it was 6.21 µM (inactive); in assay [3] it was > 20 µM (inactive); in the assay on HEK293 [15] it was > 20 µM (inactive); in assay [5], < 0.368 µM (active). Moreover, the EC50 is > 53 µM (inactive) in assay [4] and 1.93 µM (active) with HEK293 [16].
